Tests used:
[1] = tested on: keratoconus; conditions: 0.1% riboflavin drops, UVA 3 mW/cm 30 minutes, deepithelialized cornea; cited from earlier work
[2] = tested on: cornea; conditions: riboflavin drops, UVA 30 minutes, ablated cornea; cited from earlier work
[3] = tested on: post-LASIK ectasia; experiment: Treatment for post-LASIK ectasia with photoinitiator and UV irradiation; type: in vivo; conditions: 0.35M sodium persulfate drops; one 10-second UV burst 1000 mW
Protocol: A subject is diagnosed with ectasia following a LASIK procedure. […] Mechanical stability is measured using the Reichert Ocular Response Analyzer. CH values correlate with reduced mechanical stability. Pachymetry of the cornea measures a corneal stromal thickness of 300 microns or less in areas of the cornea, indicative of post-LASIK ectasia. The subject is chosen to receive treatment using short wavelength ultraviolet irradiation following administration of a low concentration photoinitiator. Drops of 0.35M sodium persulfate in 0.02M sodium phosphate buffer at a pH of 7.6-8.0 are administered to the cornea in an applicator designed to limit exposure to the location of keratoconus on the corneal surface. The cornea is then exposed to one 10-second burst of ultraviolet irradiation at an intensity of 1000 mW.

[4] = tested on: keratoconus; experiment: Treatment of keratoconus with photoinitiator and UV irradiation; type: in vivo; conditions: 0.35M sodium persulfate drops; one 10-second UV burst 1000 mW
Protocol: A subject is diagnosed with keratoconus in both eyes. They are not able to wear contact lenses. […] Corneal hysteresis measurements are made using the Reichert Ocular Response Analyzer. Corneal hysteresis (CH) is at least 3 numbers less than the normal population. Corneal topography is also conducted to identify the location of keratoconus. The subject is chosen to receive treatment using short wavelength ultraviolet irradiation following administration of a low concentration photoinitiator. Drops of 0.35M sodium persulfate in 0.02M sodium phosphate buffer at a pH of 7.6-8.0 are administered to the cornea in an applicator designed to limit exposure to the location of keratoconus on the corneal surface. The cornea is then exposed to one 10-second burst of ultraviolet irradiation at an intensity of 1000 mW.

[5] = tested on: porcine cornea; experiment: Stress-strain analysis of corneal buttons after photoinitiator and UV exposure
[6] = tested on: cornea following orthokeratology lens wear; experiment: Corneal stabilization following orthokeratology lens wear; type: in vivo; conditions: treated eye compared to untreated control eye; 0.35M sodium persulfate; one 10-second UV burst 1000 mW
Description: Subjects are fitted with lenses for orthokeratology. The subjects have one (1) eye treated by exposure to ultraviolet irradiation following pretreatment with a photoinitiator. The contralateral eye is an untreated control. Selection of the eye to be treated is random. Examinations at the initial visit and at each follow-up include unaided visual acuity, slit-lamp examination, refractive error, corneal topography, and corneal hysteresis using the Reichert Ocular Response Analyzer. CH values correlate with reduced mechanical stability. The subject is chosen to receive treatment using short wavelength ultraviolet irradiation following administration of a low concentration photoinitiator. Drops of 0.35M sodium persulfate in 0.02M sodium phosphate buffer at a pH of 7.6-8.0 are administered to the cornea in an applicator designed to limit exposure to the corneal surface. The cornea is then exposed to one 10-second burst of ultraviolet irradiation at an intensity of 1000 mW.

[7] = buffer; cited from earlier work

## Cc1cc2nc3c(=O)[nH]c(=O)nc-3n(C[C@H](O)[C@H](O)[C@H](O)CO)c2cc1C [riboflavin]
[1]
  clinical treatment of keratoconus: successful
[2]
  corneal biomechanical stiffness: significant increase

## O=S(=O)([O-])OOS(=O)(=O)[O-].[Na+].[Na+] [sodium persulfate]
[3]
  corneal hysteresis (CH): two-fold increase
  vision: significant improvement
[4]
  corneal hysteresis (CH): increase
  vision: significant improvement
[5]; 0.35M sodium persulfate 1 min, 10-second bursts UV 1000 mW, 310-400 nm, acetic anhydride softened cornea
  low modulus following exposure to ultraviolet irradiation: increased
[5]; four 10-second UV exposures
  low modulus: nearly equal to untreated control cornea
[5]; single 10-second UV exposure, FIG. 1
  strengthening (low modulus): maximum
[5]; subsequent UV exposures, FIG. 1
  low modulus: reduced the increase in low modulus
[6]
  regression of visual acuity: minimal to no regression

## CC(C#N)(CCC(=O)O)N=NC(C)(C#N)CCC(=O)O (stereo not drawn) [4,4′-Azobis(4-cyanovaleric acid)]
[7]
  10th Half-life ° C. (Solvent): 69 (water) ° C.

— US20110060267A1 (priority 2008, published 2011)
